Assay results taken from US20190209501A1, “COMPOSITIONS AND METHODS OF USE OF BETA-HYDROXY-BETA-METHYLBUTYRATE (HMB) […] IN[…]” (Texas Tech University Office of Research Commercialization, priority 2018, published 2019).

Key:
[1] = Countermovement vertical jump (jump height); type: in vivo, human; settings: for Jump Height ES (d): Cohen's d baseline vs week 8; for Jump Height Δ (%): change baseline to week 8 relative to baseline; for Jump Height Δ: week 8 minus baseline
Text: For the CMVJ tests, participants completed eight trials while wearing their own footwear. Approximately 30 seconds rest separated each trial. Ground reaction force (GRF) data were obtained during the CMVJ using two force platforms sampled at 1 kHz (OPT464508; Advanced Mechanical Technology, Inc., Watertown, Mass. USA). Participants stood motionless with each foot positioned on a force platform and their hands on their hips before initiating the CMVJ with a countermovement action using a self-selected depth and jumping with maximum effort to achieve the highest vertical displacement possible. No instructions were provided for the landing phase except to land with each foot contacting its respective force platform from take-off and to stop downward motion and return to a motionless standing position. The raw GRF data from the two force platforms were smoothed using a fourth order low pass Butterworth digital filter with a 30 Hz cutoff frequency. The smoothed GRF from the two force platforms was then summed along the vertical axis to obtain the vertical GRF acting at the body center of mass. The start of the CMVJ was defined as the time when bodyweight was reduced by 2.5% (29). Take-off was defined as the time when the summed vertical GRF decreased below a 20 N threshold (30). Jump time was then calculated as the time elapsed between the start of the CMVJ and take-off, expressed in units of seconds. Vertical jump height was calculated using the impulse-momentum relationship and expressed in units of meters.

[2] = Blood markers (lipids, glucose, insulin); type: in vivo, human; settings: for Cholesterol Δ / Cholesterol Δ (%) / Glucose Δ / Glucose Δ (%) / HDL Δ / HDL Δ (%) / Insulin Δ / Insulin Δ (%) / LDL Δ / LDL Δ (%) / Triglycerides Δ / Triglycerides Δ (%) / VLDL Δ / VLDL Δ (%): baseline to W 8; for Cholesterol ES (d) / Glucose ES (d) / HDL ES (d) / Insulin ES (d) / LDL ES (d) / Triglycerides ES (d) / VLDL ES (d): effect size
Text: At baseline and after 4 and 8 weeks of the intervention, participants completed two testing sessions: (1) a morning assessment conducted after an overnight fast for assessment of body composition, metabolism, vascular measures and subjective factors: and (2) an afternoon assessment of muscular performance, conducted in the non-fasted state. For morning assessments, participants reported to the laboratory after abstention from eating, drinking, exercising and utilizing caffeine or nicotine for ≥8 hours. Participants were interviewed to confirm adherence to these pre-assessment restrictions. The actual abstention from exercise was ≥14 hours due to the scheduling of exercise sessions. Participants reported to the laboratory wearing athletic clothing, and all metal and accessories were removed from the body prior to testing. Each participant voided her bladder and provided a urine sample. Urine samples were assessed for urine specific gravity (USG) using a digital refractometer (PA201X-093. Misco, Solon, Ohio. USA). Additionally, a standard urinary HCG test was performed to confirm that each participant was not pregnant. Finally, urinary samples were frozen at −80° C. for assessment of urinary HMB content after study unblinding. After voiding, each participant's body mass (BM) and height were determined via digital scale with stadiometer (Seca 769, Hamburg, Germany). Blood draws were performed at Texas Tech University Student Health Services after an overnight fast, and participants completed at-home saliva collections for assessment of the cortisol awakening response (CAR).
Blood samples collected by certified health professionals were transported via courier to a local clinical laboratory for analysis (University Medical Center Health System, Lubbock, Tex., USA). Testing was performed using standard instrumentation (Cobas 6000, Roche Diagnostics, Risch-Rotkreuz. Switzerland). Total cholesterol, triglycerides and HDL cholesterol were assessed using enzymatic colorimetric assays, and VLDL and non-HDL cholesterol were calculated. LDL cholesterol was calculated using the Martin-Hopkins equation (35). Glucose was measured using an enzymatic UV test, and insulin was assessed via electrochemiluminescence immunoassay. Results of the clinical laboratory analyses were provided to study investigators.

Q: With `CC(C)(O)CC(=O)O` [TRFHMB, β-hydroxy-β-methylbutyrate] as the molecule, how does the “Jump Height ES (d)” value ([1]; ITT analysis) read?
A: 0.65

Q: What about the “Jump Height Δ (%)” value ([1]; ITT analysis) of the same molecule?
A: 29%

Q: And the “Jump Height W 8” value ([1]; ITT analysis, week 8, mean ± SE, method b87 expresses jump height in meters)?
A: 0.27 ± 0.03

Q: What about the “Jump Height Δ” value ([1]; ITT analysis) of the same molecule?
A: 0.06

Q: And the “Jump Height ES (d)” value ([1]; PP analysis)?
A: 0.21

Q: And the “Jump Height Δ (%)” value ([1]; PP analysis)?
A: 9%

Q: What about the “Jump Height Δ” value ([1]; PP analysis) of the same molecule?
A: 0.02

Q: And the Cholesterol ([2]; ITT, Baseline)?
A: 178 ± 9 mg/dL

Q: And the Glucose ([2]; ITT, Baseline)?
A: 90 ± 3 mg/dL

Q: What about the HDL ([2]; ITT, Baseline) of the same molecule?
A: 75 ± 4 mg/dL

Q: What about the Insulin ([2]; ITT, Baseline) of the same molecule?
A: 10 ± 2 mcU/mL

Q: What about the LDL ([2]; ITT, Baseline) of the same molecule?
A: 85 ± 7 mg/dL

Q: What about the Triglycerides ([2]; ITT, Baseline) of the same molecule?
A: 95 ± 10 mg/dL

Q: What about the VLDL ([2]; ITT, Baseline) of the same molecule?
A: 19 ± 2 mg/dL

Q: And the Cholesterol ([2]; ITT, W 8)?
A: 183 ± 11 mg/dL

Q: And the Glucose ([2]; ITT, W 8)?
A: 89 ± 3 mg/dL

Q: And the HDL ([2]; ITT, W 8)?
A: 68 ± 5 mg/dL

Q: What about the Insulin ([2]; ITT, W 8) of the same molecule?
A: 13 ± 3 mcU/mL

Q: And the LDL ([2]; ITT, W 8)?
A: 97 ± 7 mg/dL

Q: And the Triglycerides ([2]; ITT, W 8)?
A: 85 ± 12 mg/dL

Q: What about the VLDL ([2]; ITT, W 8) of the same molecule?
A: 17 ± 2 mg/dL

Q: What about the “Cholesterol Δ” value ([2]; ITT) of the same molecule?
A: 5 mg/dL

Q: And the “Cholesterol Δ (%)” value ([2]; ITT)?
A: 3%

Q: What about the “Glucose Δ” value ([2]; ITT) of the same molecule?
A: -1 mg/dL

Q: What about the “Glucose Δ (%)” value ([2]; ITT) of the same molecule?
A: −1%

Q: What about the “HDL Δ” value ([2]; ITT) of the same molecule?
A: -7 mg/dL

Q: And the “HDL Δ (%)” value ([2]; ITT)?
A: −9%

Q: What about the “Insulin Δ” value ([2]; ITT) of the same molecule?
A: 3 mcU/mL

Q: And the “Insulin Δ (%)” value ([2]; ITT)?
A: 30%

Q: And the “LDL Δ” value ([2]; ITT)?
A: 12 mg/dL

Q: What about the “LDL Δ (%)” value ([2]; ITT) of the same molecule?
A: 14%

Q: What about the “Triglycerides Δ” value ([2]; ITT) of the same molecule?
A: -10 mg/dL

Q: What about the “Triglycerides Δ (%)” value ([2]; ITT) of the same molecule?
A: −11%

Q: And the “VLDL Δ” value ([2]; ITT)?
A: -2 mg/dL

Q: What about the “VLDL Δ (%)” value ([2]; ITT) of the same molecule?
A: −11%

Q: What about the “Cholesterol ES (d)” value ([2]; ITT) of the same molecule?
A: 0.14

Q: And the “Glucose ES (d)” value ([2]; ITT)?
A: −0.09

Q: What about the “HDL ES (d)” value ([2]; ITT) of the same molecule?
A: −0.43

Q: And the “Insulin ES (d)” value ([2]; ITT)?
A: 0.27

Q: What about the “LDL ES (d)” value ([2]; ITT) of the same molecule?
A: 0.48

Q: And the “Triglycerides ES (d)” value ([2]; ITT)?
A: −0.25

Q: What about the “VLDL ES (d)” value ([2]; ITT) of the same molecule?
A: −0.28

Q: And the Cholesterol ([2]; PP, Baseline)?
A: 168 ± 13 mg/dL

Q: And the Glucose ([2]; PP, Baseline)?
A: 92 ± 4 mg/dL

Q: And the HDL ([2]; PP, Baseline)?
A: 72 ± 5 mg/dL

Q: And the Insulin ([2]; PP, Baseline)?
A: 9 ± 3 mcU/mL

Q: What about the LDL ([2]; PP, Baseline) of the same molecule?
A: 78 ± 9 mg/dL

Q: What about the Triglycerides ([2]; PP, Baseline) of the same molecule?
A: 91 ± 14 mg/dL

Q: And the VLDL ([2]; PP, Baseline)?
A: 18 ± 3 mg/dL

Q: What about the Cholesterol ([2]; PP, W 8) of the same molecule?
A: 183 ± 15 mg/dL

Q: And the Glucose ([2]; PP, W 8)?
A: 90 ± 4 mg/dL

Q: What about the HDL ([2]; PP, W 8) of the same molecule?
A: 70 ± 6 mg/dL

Q: And the Insulin ([2]; PP, W 8)?
A: 10 ± 3 mcU/mL

Q: And the LDL ([2]; PP, W 8)?
A: 96 ± 9 mg/dL

Q: What about the Triglycerides ([2]; PP, W 8) of the same molecule?
A: 80 ± 17 mg/dL

Q: What about the VLDL ([2]; PP, W 8) of the same molecule?
A: 16 ± 3 mg/dL

Q: What about the “Cholesterol Δ” value ([2]; PP) of the same molecule?
A: 15 mg/dL

Q: What about the “Cholesterol Δ (%)” value ([2]; PP) of the same molecule?
A: 9%

Q: What about the “Glucose Δ” value ([2]; PP) of the same molecule?
A: -2 mg/dL

Q: What about the “Glucose Δ (%)” value ([2]; PP) of the same molecule?
A: −2%

Q: And the “HDL Δ” value ([2]; PP)?
A: -2 mg/dL

Q: What about the “HDL Δ (%)” value ([2]; PP) of the same molecule?
A: −3%

Q: What about the “Insulin Δ” value ([2]; PP) of the same molecule?
A: 1 mcU/mL

Q: What about the “Insulin Δ (%)” value ([2]; PP) of the same molecule?
A: 11%

Q: And the “LDL Δ” value ([2]; PP)?
A: 18 mg/dL

Q: And the “LDL Δ (%)” value ([2]; PP)?
A: 23%

Q: And the “Triglycerides Δ” value ([2]; PP)?
A: -11 mg/dL

Q: What about the “Triglycerides Δ (%)” value ([2]; PP) of the same molecule?
A: −12%

Q: And the “VLDL Δ” value ([2]; PP)?
A: -2 mg/dL

Q: And the “VLDL Δ (%)” value ([2]; PP)?
A: −11%

Q: What about the “Cholesterol ES (d)” value ([2]; PP) of the same molecule?
A: 0.40

Q: And the “Glucose ES (d)” value ([2]; PP)?
A: −0.19

Q: And the “HDL ES (d)” value ([2]; PP)?
A: −0.14

Q: And the “Insulin ES (d)” value ([2]; PP)?
A: 0.55

Q: And the “LDL ES (d)” value ([2]; PP)?
A: 0.76

Q: And the “Triglycerides ES (d)” value ([2]; PP)?
A: −0.27

Q: And the “VLDL ES (d)” value ([2]; PP)?
A: −0.30
